Legend:
Type in all cases: cell-based, Sprague-Dawley rat
TUBB3 = test: Western blot of TUBB3 in differentiating neural stem cells; conditions: NSCs without EGF and FGF2, 4 days, vs 0.1% DMSO, FIG. 1A
Procedure: (§1) Neural stem cells (NSCs) were cultured and harvested as previously reported (Faseb J 2018, 32 (2), 1108-1119). Specifically, the cells were harvested by dissecting the cerebral cortex from embryos of 14-day pregnant Sprague-Dawley rats (Orient Bio, Seongnam, South Korea). The cells were incubated for 6 days at 37° C. in 5% CO2 in Dulbecco's modified Eagle's medium (DMEM/F12) (Cat no. 12500-062, Gibco, Grand Island, NY, U.S.A.) containing Ham's nutrient mixture F-12 supplemented with 1% antibiotic-antimycotic (Cat no. 15240-062, Gibco), 2% B-27 supplement (Cat no. 17504-044, Gibco), 20 ng/ml EGF (Cat no. GF144, Chemicon, Burlington, MA, U.S.A.), and 20 ng/ml FGF2 (Cat no. GF003AF, Chemicon), so as to form neurospheres. The neurospheres were then dissociated into single cells using Accutase (Cat No. SCR005, Sigma-Aldrich, St. Louis, MO, U.S.A.). The cells were then attached to culture plates for one day in medium enriched with EGF and FGF2. […]
(§2) Chemiluminescence was detected on CP-BU new film (Agfa, Mortsel, Belgium) using western blotting luminol reagent (Cat no. sc-2048, Santa Cruz Biotechnology). Band intensity was quantified using ImageJ version 2.3.0. GAPDH (Glyceraldehyde-3-phosphate dehydrogenase) was measured as a housekeeping protein. […]

GFAP = test: Western blot of TUBB3, GFAP and OLIG2 in differentiating neural stem cells; conditions: NSCs without EGF and FGF2, 4 days, vs 0.1% DMSO, FIG. 1A
Procedure: as §1, §2

neural stem cells (NSCs) = test: Immunocytochemistry (ICC) of differentiating neural stem cells
Procedure: Neural stem cells (NSCs) were cultured and harvested as previously reported (Faseb J 2018, 32 (2), 1108-1119). Specifically, the cells were harvested by dissecting the cerebral cortex from embryos of 14-day pregnant Sprague-Dawley rats (Orient Bio, Seongnam, South Korea). The cells were incubated for 6 days at 37° C. in 5% CO2 in Dulbecco's modified Eagle's medium (DMEM/F12) (Cat no. 12500-062, Gibco, Grand Island, NY, U.S.A.) containing Ham's nutrient mixture F-12 supplemented with 1% antibiotic-antimycotic (Cat no. 15240-062, Gibco), 2% B-27 supplement (Cat no. 17504-044, Gibco), 20 ng/ml EGF (Cat no. GF144, Chemicon, Burlington, MA, U.S.A.), and 20 ng/ml FGF2 (Cat no. GF003AF, Chemicon), so as to form neurospheres. The neurospheres were then dissociated into single cells using Accutase (Cat No. SCR005, Sigma-Aldrich, St. Louis, MO, U.S.A.). The cells were then attached to culture plates for one day in medium enriched with EGF and FGF2. Next, the NSCs were treated with DMEM/F12 medium containing 1% antibiotic-antimycotic, 2% B-27 supplement, and either DMSO (Cat no. 472301, Sigma-Aldrich) or various concentrations of CPI-455 (Cat no. HY-100421, Medchemexpress, Princeton, NJ, U.S.A.) dissolved in DMSO. The medium was replaced every 2 days. Cells for western blot and immunostaining were cultured for 4 days after treatment with CPI-455. Cells for RT-qPCR and ChIP-qPCR were cultured for 3 days after treatment with CPI-455.
Immunocytochemistry was performed as previously reported (Faseb J 2018, 32 (2), 1108-1119). Specifically, the cells were fixed in 4% paraformaldehyde solution (Cat no. P231, Biosesang, Seongnam, South Korea) for 30 minutes. The cells were blocked with 5% goat serum (Cat no. S26, Millipore) diluted in 0.2% Triton X-100 (Cat no. 0694-1L, VWR International, Radnor, PA, U.S.A.).
The cells were stained for 1 hour with the following primary antibodies: TUBB3 (1:1000; Cat no. T5076, Sigma-Aldrich) and GFAP (1:500; Cat no. Z0334, Dako, Santa Clara, CA, U.S.A.). Next, the following secondary antibodies were applied for 30 minutes: Alexa488 goat anti-mouse IgG (1:1000; Cat no. A21131, Invitrogen, Waltham, MA, U.S.A.) and Cy3 goat anti-rabbit IgG (1:1000; Cat no. 111-165-144, Jackson, West Grove, PA, U.S.A.).
The nuclei were stained by treating the cells with 0.01% DAPI (4′,6-diamidino-2-phenylindole) (Cat No. D9542, Sigma-Aldrich) in PBS solution for 5 minutes. Fluorescent images were captured using a Leica DM IL inverse fluorescent microscope and LAS X software (Leica, Wetzlar, Germany).
NSCs proliferate in the presence of an epidermal growth factor (EGF) and […] growth factor-2 (FGF2), and in the absence of growth factors in a medium, NSCs differentiate into neurons and astrocytes. […]

STAT3 = test: Western blot of STAT3 expression and phosphorylation in neural stem cells; conditions: 50 μM, 4 days, FIG. 3A
Procedure: as §1
Chemiluminescence was detected on CP-BU new film (Agfa, Mortsel, Belgium) using western blotting luminol reagent (Cat no. sc-2048, Santa Cruz Biotechnology). Band intensity was quantified using ImageJ version 2.3.0. GAPDH (Glyceraldehyde-3-phosphate dehydrogenase) was measured as a housekeeping protein.

lif mRNA = test: RT-qPCR of lif mRNA in neural stem cells; conditions: 3 days, CPI-455-induced astrocytogenesis
Procedure: as §1
(§3) RNA was extracted using TRIzol® reagent (Cat no. 15596018, Thermo Fisher, Waltham, MA, U.S.A.) and dissolved in diethylpyrocarbonate-treated water (Cat no. C-9030, Bioneer, Daejeon, South Korea). Complementary DNA (cDNA) was synthesized from 1 μg of RNA per sample using a QuantiTect reverse transcriptase kit (Cat no. 205311, Qiagen, Hilden, Germany). […]

bmp2 mRNA = test: RT-qPCR of il-6, lif, cntf and bmp2 mRNA in neural stem cells; conditions: 3 days, FIG. 3B
Procedure: as §1, §3

gfap mRNA = test: RT-qPCR of gfap mRNA in differentiating neural stem cells; conditions: 50 μM, 3 days without EGF and FGF2, vs 0.1% DMSO, FIG. 1B
Procedure: as §1, §3

OLIG2 = test: Western blot of OLIG2 in differentiating neural stem cells; conditions: NSCs without EGF and FGF2, 4 days, vs 0.1% DMSO, FIG. 1A
Procedure: as §1, §2

[1] = 50 μM, 4 days without EGF and FGF2, vs 0.1% DMSO, FIGS. 2A and 2B

`CC(C)c1c(-c2ccccc2)[nH]c2c(C#N)cnn2c1=O` [CPI-455, 4,7-dihydro-6-(1-methylethyl)-7-oxo-5-phenyl-pyrazolo[1,5-a]pyrimidine-3-carbonitrile] was tested, and the TUBB3 protein expression (TUBB3) was “no significant change”, the “GFAP protein expression compared to the control” value (GFAP) was “significantly increased” and the “number of GFAP-positive cells” value (neural stem cells (NSCs); [1]) was “significantly increased”. The “percentage of TUBB3-positive cells” value (neural stem cells (NSCs); [1]) was “did not show any significant difference”, the “number of DAPI-positive cells” value (neural stem cells (NSCs); 4 days without EGF and FGF2, vs 0.1% DMSO) was “No significant difference” and the “cytotoxicity during NSC differentiation” value (neural stem cells (NSCs); 4 days, inferred from DAPI-positive cell number) was “not inducing cytotoxicity”. The “phosphorylated STAT3 (pSTAT3) with respect to total STAT3” value (STAT3) was “significantly increased”, the lif expression (lif mRNA) was “without an increase” and the “bmp2 mRNA expression” value (bmp2 mRNA; 50 μM) was “significantly increased”. The “bmp2 mRNA among the investigated cytokines (il-6, lif, cntf, bmp2)” value (bmp2 mRNA; comparison with il-6, lif, cntf) was “only cytokine mRNA that showed a significant increase”, the “gfap mRNA expression compared to the control” value (gfap mRNA) was “significantly increased” and the OLIG2 protein expression (OLIG2) was “no significant change”.

Source: patent US20260317706A1, “COMPOSITION FOR INDUCING STEM CELLS TO DIFFERENTIATE INTO ASTROCYTES, CONTAINING CPI-455” (CHUNG ANG UNIVERSITY INDUSTRY ACADEMIC COOPERATION …, priority 2023, published 2026)
